Series [1] concerns the target T1, human recombinant Bcl-2 protein (Homo sapiens, UniProt P10415).
T1 construct: purchased Beijing Yigiao Shenzhou Biotechnology Co., Ltd. 10195-HOSE
Kind of series: Fluorescence polarization test for inhibition of BCL-2 binding to FITC-BIM. The following applies: 5 nM BCL-2, 5 nM FITC-BIM, read-out: FP BCL-2 IC50. A digest of the protocol:
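FP competition: compound preincubated 15 min with recombinant human Bcl-2 (diluted to 5 nM), then FITC-BIM (diluted to 5 nM) added for 30 min at room temperature in PBS pH 7.4 with 1 mM DTT. Polarization read at 480/535 nm; IC50 from 8-point 4-fold series fitted by four-parameter equation.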

Series [2] concerns the target T2, human recombinant Bcl-XL protein (Homo sapiens, UniProt Q07817).
T2 construct: purchased Beijing Yiqiao Shenzhou Biotechnology Co., Ltd. 10455-H0SE
Kind of series: Fluorescence polarization test for inhibition of BCL-XL binding to FITC-BIM. The conditions noted are these: 10 nM BCL-XL, 10 nM FITC-BIM, read-out: FP BCL-XL IC50. A digest of the protocol: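 Human recombinant Bcl-XL (10 nM diluted stock) preincubated with compound 15 min at RT in PBS pH 7.4, 1 mM DTT, then FITC-BIM peptide (10 nM diluted stock) added for 30 min in dark. FP read at ex 480/em 535 nm; no-protein wells = 100% inhibition; IC50 from 8-point 4-fold dilution curve fit.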
For orientation: Fluorescence polarisation rises when a labelled molecule tumbles more slowly, as on binding a larger partner.

The test system of series [3] is RS4;11 cells (acute lymphoblastic leukemia cells). The experiment in a line: RS4;11 cell proliferation, CellTilter-Glo luminescence cell viability assay. It counts as cell-based. The conditions noted are these: Homo sapiens, RS4-11; CTG readout after 48 hours. In short, it runs like this: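 RS4;11 cells plated overnight were exposed for 48 h at 37 °C, 5% CO2 to an 8-point, 4-fold compound dilution series; the vehicle control contained 0.2% DMSO. Viability was read by CellTiter-Glo luminescence. Percent inhibition was referenced to no-cell and DMSO controls, and IC50 came from a four-parameter sigmoidal fit.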

The subject of series [4] is patients with relapsed or refractory lymphoid malignancies. The following applies: cited from earlier work.
Series [5] concerns chronic lymphocytic leukemia (CLL) patients. The following applies: clinical; cited from earlier work.

One may read the IC50 as the concentration needed to halve the response being measured.

T2 sequence (Q07817 whole entry): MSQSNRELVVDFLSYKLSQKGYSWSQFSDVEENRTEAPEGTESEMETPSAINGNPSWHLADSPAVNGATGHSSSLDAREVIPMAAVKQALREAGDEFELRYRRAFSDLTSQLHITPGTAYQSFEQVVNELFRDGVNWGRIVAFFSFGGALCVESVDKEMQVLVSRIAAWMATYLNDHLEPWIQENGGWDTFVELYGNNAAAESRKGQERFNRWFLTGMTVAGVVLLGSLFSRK
T1 sequence (P10415 whole entry): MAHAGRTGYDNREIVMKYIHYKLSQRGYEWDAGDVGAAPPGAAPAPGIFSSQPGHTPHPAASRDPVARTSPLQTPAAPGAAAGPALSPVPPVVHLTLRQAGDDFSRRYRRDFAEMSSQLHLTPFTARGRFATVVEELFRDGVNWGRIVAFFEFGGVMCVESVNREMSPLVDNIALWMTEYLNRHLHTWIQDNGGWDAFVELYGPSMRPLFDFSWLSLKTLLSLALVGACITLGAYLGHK

Turning to `C[C@H]1CN(c2ccc(C(=O)NS(=O)(=O)c3cc(F)c(NC[C@H]4COCCO4)c([N+](=O)[O-])c3)c(Oc3cnc4[nH]ccc4c3)c2)CCN1CC1=C(c2ccc(Cl)cc2)CC(C)(C)CC1` [Example 47, N-((4-((((S)-1,4-dioxan-2-yl)methyl)amino)-3-fluoro-5-nitrophenyl)sulfonyl)-2-((1H-pyrrolo[2,3-b]pyridin-5-yl)oxy)-4-((S)-4-((4′-chloro-5,5-dimethyl-3,4,5,6-tetrahydro-[1,1′-biphenyl]-2-yl)methyl)-3-methylpiperazin-1-yl) benzamide], the half-maximal inhibitory concentration (IC50) in series [1] was more than 100 nM; in series [2] it was more than 1000 nM; in series [3] it was 486 nM.
As to `C[C@H]1CN(c2ccc(C(=O)NS(=O)(=O)c3ccc(NC[C@H]4COCCO4)c([N+](=O)[O-])c3)c(Oc3cnc4[nH]ccc4c3)c2)CCN1CC1=C(c2ccc(Cl)cc2)CC(C)(C)CC1` [Example 48, N-((4-((((S)-1,4-dioxan-2-yl)methyl)amino)-3-nitrophenyl)sulfonyl)-2-((1H-pyrrolo[2,3-b]pyridin-5-yl)oxy)-4-((S)-4-((4′-chloro-5,5-dimethyl-3,4,5,6-tetrahydro-[1,1′-biphenyl]-2-yl)methyl)-3-methylpiperazin-1-yl) benzamide], the IC50 is 63.8 nM in series [1], more than 1000 nM in series [2] and 229 nM in series [3].
On the same counts, the results for `C[C@H]1CN(c2ccc(C(=O)NS(=O)(=O)c3ccc(NC[C@H]4COCCO4)c([N+](=O)[O-])c3)c(Oc3cnc4[nH]ccc4c3)c2)CCN1CC1=C(c2ccc(Cl)cc2)CCC(C)(C)C1` [Example 49, N-((4-((((S)-1,4-dioxan-2-yl)methyl)amino)-3-nitrophenyl)sulfonyl)-2-((1H-pyrrolo[2,3-b]pyridin-5-yl)oxy)-4-((S)-4-((4′-chloro-4,4-dimethyl-3,4,5,6-tetrahydro-[1,1′-biphenyl]-2-yl)methyl)-3-methylpiperazin-1-yl) benzamide] are more than 100 nM, more than 1000 nM and more than 500 nM.
On the same counts, the results for `C[C@H]1CN(c2ccc(C(=O)NS(=O)(=O)c3ccc(NCC4CCOCC4)c([N+](=O)[O-])c3)c(Oc3cnc4[nH]ccc4c3)c2)CCN1CC1=C(c2ccc(Cl)cc2)CC(C)(C)CC1` [Example 50, (S)-2-((1H-pyrrolo[2,3-b]pyridin-5-yl)oxy)-4-(4-((4′-chloro-5,5-dimethyl-3,4,5,6-tetrahydro-[1,1′-biphenyl]-2-yl)methyl)-3-methylpiperazin-1-yl)-N-((3-nitro-4--(((tetrahydro-2H-pyran-4-yl)methyl)amino)phenyl)sulfonyl) benzamide] are more than 100 nM, more than 1000 nM and more than 500 nM.
As for `C[C@H]1CN(c2ccc(C(=O)NS(=O)(=O)c3ccc(NC[C@@H]4COCCO4)c([N+](=O)[O-])c3)c(Oc3cnc4[nH]ccc4c3)c2)CCN1CC1=C(c2ccc(Cl)cc2)CC(C)(C)CC1` [Example 51, N-((4-((((R)-1,4-dioxan-2-yl)methyl)amino)-3-nitrophenyl)sulfonyl)-2-((1H-pyrrolo[2,3-b]pyridin-5-yl)oxy)-4-((S)-4-((4′-chloro-5,5-dimethyl-3,4,5,6-tetrahydro-[1,1′-biphenyl]-2-yl)methyl)-3-methylpiperazin-1-yl) benzamide], the IC50 in series [1] is more than 100 nM; in series [2] it was more than 1000 nM; in series [3], more than 500 nM.
On the same counts, the results for `C[C@@H]1CN(c2ccc(C(=O)NS(=O)(=O)c3ccc(NC[C@@H]4COCCO4)c([N+](=O)[O-])c3)c(Oc3cnc4[nH]ccc4c3)c2)CCN1CC1=C(c2ccc(Cl)cc2)CC(C)(C)CC1` [Example 52, N-((4-((((R)-1,4-dioxan-2-yl)methyl)amino)-3-nitrophenyl)sulfonyl)-2-((1H-pyrrolo [2,3-b]pyridin-5-yl)oxy)-4-((R)-4-((4′-chloro-5,5-dimethyl-3,4,5,6-tetrahydro-[1,1′-biphenyl]-2-yl)methyl)-3-methylpiperazin-1-yl) benzamide] are 1.9 nM, more than 1000 nM and 5.1 nM.
On the same counts, the results for `C[C@H]1CN(c2ccc(C(=O)NS(=O)(=O)c3ccc(NC[C@@H]4COCCO4)c([N+](=O)[O-])c3)c(Oc3cnc4[nH]ccc4c3)c2)CCN1CC1=C(c2ccc(Cl)cc2)CCC(C)(C)C1` [Example 53, N-((4-((((R)-1,4-dioxan-2-yl)methyl)amino)-3-nitrophenyl)sulfonyl)-2-((1H-pyrrolo[2,3-b]pyridin-5-yl)oxy)-4-((S)-4-((4′-chloro-4,4-dimethyl-3,4,5,6-tetrahydro-[1,1′-biphenyl]-2-yl)methyl)-3-methylpiperazin-1-yl)benzamide] are more than 100 nM, more than 1000 nM and more than 500 nM.
For `C[C@@H]1CN(c2ccc(C(=O)NS(=O)(=O)c3ccc(NC[C@@H]4COCCO4)c([N+](=O)[O-])c3)c(Oc3cnc4[nH]ccc4c3)c2)CCN1CC1=C(c2ccc(Cl)cc2)CCC(C)(C)C1` [Example 54, N-((4-((((R)-1,4-dioxan-2-yl)methyl)amino)-3-nitrophenyl)sulfonyl)-2-((1H-pyrrolo[2,3-b]pyridin-5-yl)oxy)-4-((R)-4-((4′-chloro-4,4-dimethyl-3,4,5,6-tetrahydro-[1,1′-biphenyl]-2-yl)methyl)-3-methylpiperazin-1-yl)benzamide], in that order: 11 nM, more than 1000 nM and 25 nM.
In the case of `C[C@@H]1CN(c2ccc(C(=O)NS(=O)(=O)c3cc(F)c(NC[C@@H]4COCCO4)c([N+](=O)[O-])c3)c(Oc3cnc4[nH]ccc4c3)c2)CCN1CC1=C(c2ccc(Cl)cc2)CC(C)(C)CC1` [Example 55, N-((4-((((R)-1,4-dioxan-2-yl)methyl)amino)-3-fluoro-5-nitrophenyl)sulfonyl)-2-((1H-pyrrolo[2,3-b]pyridin-5-yl)oxy)-4-((R)-4-((4′-chloro-5,5-dimethyl-3,4,5,6-tetrahydro-[1,1′-biphenyl]-2-yl)methyl)-3-methylpiperazin-1-yl)benzamide], the concentration for half-maximal inhibition (IC50) in series [1] was 2.3 nM; in series [2], more than 1000 nM; in series [3], 5.7 nM.
On to `C[C@H]1CN(c2ccc(C(=O)NS(=O)(=O)c3cc(F)c(NC[C@@H]4COCCO4)c([N+](=O)[O-])c3)c(Oc3cnc4[nH]ccc4c3)c2)CCN1CC1=C(c2ccc(Cl)cc2)CC(C)(C)CC1` [Example 56, N-((4-((((R)-1,4-dioxan-2-yl)methyl)amino)-3-fluoro-5-nitrophenyl)sulfonyl)-2-((1H-pyrrolo[2,3-b]pyridin-5-yl)oxy)-4-((S)-4-((4′-chloro-5,5-dimethyl-3,4,5,6-tetrahydro-[1,1′-biphenyl]-2-yl)methyl)-3-methylpiperazin-1-yl) benzamide], for which the IC50 in series [1] was 82 nM; in series [2] it was more than 1000 nM; in series [3], 224 nM.
On the same counts, the results for `CC1(C)CCC(CN2CCN(c3ccc(C(=O)NS(=O)(=O)c4ccc(NCC5CCOCC5)c([N+](=O)[O-])c4)c(Oc4cnc5[nH]ccc5c4)c3)[C@@H]3CCCC[C@H]32)=C(c2ccc(Cl)cc2)C1` [Example 57] are more than 500 nM, more than 1000 nM and more than 1000 nM.
Take `C[C@@H]1CN(c2ccc(C(=O)NS(=O)(=O)c3ccc(NCC4CCOCC4)c([N+](=O)[O-])c3)c(Oc3cnc4[nH]ccc4c3)c2)[C@H](C)CN1CC1=C(c2ccc(Cl)cc2)CC(C)(C)CC1` [Example 58, 2-((1H-Pyrrolo[2,3-b]pyridin-5-yl)oxy)-4-((2R,5R)-4-((4′-chloro-5,5-dimethyl-3,4,5,6-tetrahydro-[1,1′-biphenyl]-2-yl)methyl)-2,5-dimethylpiperazin-1-yl)-N-((3-nitro-4-(((tetrahydro-2H-pyran-4-yl)methyl)amino)phenyl)sulfonyl)benzamide]: the IC50 is 29.9 nM in series [1], more than 1000 nM in series [2] and 142 nM in series [3].
Turning to `C[C@@H]1CN(c2ccc(C(=O)NS(=O)(=O)c3ccc(NC[C@H]4COCCO4)c([N+](=O)[O-])c3)c(Oc3cnc4[nH]ccc4c3)c2)C[C@@H](C)N1CC1=C(c2ccc(Cl)cc2)CC(C)(C)CC1` [Example 59, N-((4-((((S)-1,4-Dioxan-2-yl)menthyl)amino)-3-nitrophenyl)sulfonyl)-2-((1H-pyrrolo[2,3-b]pyridin-5-yl)oxy)-4-((3R,5R)-4-((4′-chloro-5,5-dimethyl-3,4,5,6-tetrahydro-[1,1′-biphenyl]-2-yl)methyl)-3,5-dimethylpiperazin-1-yl)benzamide], the IC50 in series [1] was 73.2 nM; in series [2], more than 1000 nM; in series [3], 193 nM.
With `CC1(C)CCC(c2ccc(Cl)cc2)=C(CN2CCN(c3ccc(C(=O)NS(=O)(=O)c4ccc(N[C@H](CCN5CCOCC5)CSc5ccccc5)c(S(=O)(=O)C(F)(F)F)c4)cc3)CC2)C1` [Navitoclax], the response in series [4] (Phase I dose escalation) is reported as 50%. Also, in series [4] (thrombocytopenia and severe anemia), the targeted toxicity entry was “very strong targeted toxicity related to BCL-XL”.
Regarding `COC1=CC(c2cc3ccccc3[nH]2)=N/C1=C\c1[nH]c(C)cc1C` [Obatoclax], in series [5], the neurotoxicity result was “strong neurotoxicity”.

The values are drawn from patent US20230271959A1, “HETEROCYCLIC COMPOUND AS BCL-2 INHIBITOR” (Beijing Innocare Pharma Tech Co., Ltd., priority 2020, published 2023).
